Reference: US20230416248A1, “COMPOUNDS AND USES THEREOF” (Foghorn Therapeutics Inc., priority 2020, published 2023)
Where two headings read alike, the source gives them in different places.

Tests used:
BRG-1 = molecular target: T1, BRG-1 (Homo sapiens, UniProt P51532); assay: ATPase catalytic activity of BRG-1, ADP-Glo in vitro biochemical assay; conditions: 30 nM BRG-1, 400 μM ATP, read-out: BRG1 IC50
T1 construct: made in house; host or cells: High Five insect cells
Summary of the method: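 Once the ATPase reaction finished, leftover ATP was depleted over 40 minutes at room temperature. Generated ADP was next turned back into ATP during a 60-minute room-temperature step. Luciferase-derived light was then measured.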

BRM = molecular target: T2, BRM (Homo sapiens, UniProt P51531); assay: ATPase catalytic activity of BRM, ADP-Glo in vitro biochemical assay; conditions: for IC50: 30 nM BRM, 400 μM ATP; for Ratio* (BRG1 IC50 (μM) divided by BRM IC50 (μM)): selectivity ratio BRG1 IC50 / BRM IC50
T2 construct: made in house; host or cells: High Five insect cells
Summary of the method: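 ADP-Glo luminescence, after depletion of leftover ATP and conversion of ADP, reported the activity. The 1 h room-temperature reaction held 400 μM ATP, 20 nM salmon sperm DNA and 30 nM BRM in 20 mM Tris pH 8, 20 mM MgCl2, 50 mM NaCl, 0.1% Tween-20, 1 mM DTT.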

[1] = ATPase catalytic activity, ADP-Glo

T1 sequence (P51532 whole entry): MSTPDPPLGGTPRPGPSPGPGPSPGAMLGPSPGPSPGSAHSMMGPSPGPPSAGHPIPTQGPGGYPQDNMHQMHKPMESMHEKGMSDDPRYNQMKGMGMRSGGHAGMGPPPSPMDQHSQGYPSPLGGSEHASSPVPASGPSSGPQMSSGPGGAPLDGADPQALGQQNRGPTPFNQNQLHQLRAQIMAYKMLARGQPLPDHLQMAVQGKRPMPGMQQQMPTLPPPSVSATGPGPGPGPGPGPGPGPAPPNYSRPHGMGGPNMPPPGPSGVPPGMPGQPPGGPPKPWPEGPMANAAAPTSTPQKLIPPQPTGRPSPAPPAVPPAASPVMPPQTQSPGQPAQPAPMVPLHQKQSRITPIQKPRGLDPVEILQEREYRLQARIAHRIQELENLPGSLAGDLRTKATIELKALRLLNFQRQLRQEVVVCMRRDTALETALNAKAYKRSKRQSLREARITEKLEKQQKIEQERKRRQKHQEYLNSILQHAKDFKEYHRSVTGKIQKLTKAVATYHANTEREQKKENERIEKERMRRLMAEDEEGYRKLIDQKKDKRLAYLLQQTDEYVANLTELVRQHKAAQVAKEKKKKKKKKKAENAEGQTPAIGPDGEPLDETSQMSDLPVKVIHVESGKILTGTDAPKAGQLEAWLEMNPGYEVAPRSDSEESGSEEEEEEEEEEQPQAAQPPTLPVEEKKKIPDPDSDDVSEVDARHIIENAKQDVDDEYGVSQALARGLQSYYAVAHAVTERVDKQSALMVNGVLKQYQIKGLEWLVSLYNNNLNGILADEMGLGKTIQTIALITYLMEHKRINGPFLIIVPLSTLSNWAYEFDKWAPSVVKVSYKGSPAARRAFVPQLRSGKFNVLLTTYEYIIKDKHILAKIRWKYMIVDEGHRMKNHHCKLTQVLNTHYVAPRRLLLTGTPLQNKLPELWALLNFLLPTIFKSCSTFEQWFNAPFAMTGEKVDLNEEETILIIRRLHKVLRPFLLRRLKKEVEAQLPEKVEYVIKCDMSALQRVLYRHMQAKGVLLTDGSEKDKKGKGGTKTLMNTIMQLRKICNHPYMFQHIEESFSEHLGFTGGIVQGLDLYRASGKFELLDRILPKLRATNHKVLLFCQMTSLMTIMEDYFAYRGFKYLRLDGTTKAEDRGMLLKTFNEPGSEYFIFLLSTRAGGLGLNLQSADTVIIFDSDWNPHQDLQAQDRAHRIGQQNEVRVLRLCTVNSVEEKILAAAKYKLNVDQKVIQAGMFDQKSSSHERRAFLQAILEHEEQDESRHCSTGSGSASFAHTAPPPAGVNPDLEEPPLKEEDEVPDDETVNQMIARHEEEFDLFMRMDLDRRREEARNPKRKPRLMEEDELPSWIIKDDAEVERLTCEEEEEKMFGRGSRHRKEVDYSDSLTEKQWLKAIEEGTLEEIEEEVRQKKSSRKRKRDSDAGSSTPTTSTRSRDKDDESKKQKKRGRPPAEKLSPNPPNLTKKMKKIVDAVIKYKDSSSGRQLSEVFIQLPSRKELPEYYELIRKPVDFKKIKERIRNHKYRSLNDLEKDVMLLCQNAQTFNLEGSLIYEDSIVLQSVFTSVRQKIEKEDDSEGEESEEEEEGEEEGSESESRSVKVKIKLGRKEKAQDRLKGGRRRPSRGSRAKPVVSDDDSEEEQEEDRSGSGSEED
T2 sequence (P51531 whole entry): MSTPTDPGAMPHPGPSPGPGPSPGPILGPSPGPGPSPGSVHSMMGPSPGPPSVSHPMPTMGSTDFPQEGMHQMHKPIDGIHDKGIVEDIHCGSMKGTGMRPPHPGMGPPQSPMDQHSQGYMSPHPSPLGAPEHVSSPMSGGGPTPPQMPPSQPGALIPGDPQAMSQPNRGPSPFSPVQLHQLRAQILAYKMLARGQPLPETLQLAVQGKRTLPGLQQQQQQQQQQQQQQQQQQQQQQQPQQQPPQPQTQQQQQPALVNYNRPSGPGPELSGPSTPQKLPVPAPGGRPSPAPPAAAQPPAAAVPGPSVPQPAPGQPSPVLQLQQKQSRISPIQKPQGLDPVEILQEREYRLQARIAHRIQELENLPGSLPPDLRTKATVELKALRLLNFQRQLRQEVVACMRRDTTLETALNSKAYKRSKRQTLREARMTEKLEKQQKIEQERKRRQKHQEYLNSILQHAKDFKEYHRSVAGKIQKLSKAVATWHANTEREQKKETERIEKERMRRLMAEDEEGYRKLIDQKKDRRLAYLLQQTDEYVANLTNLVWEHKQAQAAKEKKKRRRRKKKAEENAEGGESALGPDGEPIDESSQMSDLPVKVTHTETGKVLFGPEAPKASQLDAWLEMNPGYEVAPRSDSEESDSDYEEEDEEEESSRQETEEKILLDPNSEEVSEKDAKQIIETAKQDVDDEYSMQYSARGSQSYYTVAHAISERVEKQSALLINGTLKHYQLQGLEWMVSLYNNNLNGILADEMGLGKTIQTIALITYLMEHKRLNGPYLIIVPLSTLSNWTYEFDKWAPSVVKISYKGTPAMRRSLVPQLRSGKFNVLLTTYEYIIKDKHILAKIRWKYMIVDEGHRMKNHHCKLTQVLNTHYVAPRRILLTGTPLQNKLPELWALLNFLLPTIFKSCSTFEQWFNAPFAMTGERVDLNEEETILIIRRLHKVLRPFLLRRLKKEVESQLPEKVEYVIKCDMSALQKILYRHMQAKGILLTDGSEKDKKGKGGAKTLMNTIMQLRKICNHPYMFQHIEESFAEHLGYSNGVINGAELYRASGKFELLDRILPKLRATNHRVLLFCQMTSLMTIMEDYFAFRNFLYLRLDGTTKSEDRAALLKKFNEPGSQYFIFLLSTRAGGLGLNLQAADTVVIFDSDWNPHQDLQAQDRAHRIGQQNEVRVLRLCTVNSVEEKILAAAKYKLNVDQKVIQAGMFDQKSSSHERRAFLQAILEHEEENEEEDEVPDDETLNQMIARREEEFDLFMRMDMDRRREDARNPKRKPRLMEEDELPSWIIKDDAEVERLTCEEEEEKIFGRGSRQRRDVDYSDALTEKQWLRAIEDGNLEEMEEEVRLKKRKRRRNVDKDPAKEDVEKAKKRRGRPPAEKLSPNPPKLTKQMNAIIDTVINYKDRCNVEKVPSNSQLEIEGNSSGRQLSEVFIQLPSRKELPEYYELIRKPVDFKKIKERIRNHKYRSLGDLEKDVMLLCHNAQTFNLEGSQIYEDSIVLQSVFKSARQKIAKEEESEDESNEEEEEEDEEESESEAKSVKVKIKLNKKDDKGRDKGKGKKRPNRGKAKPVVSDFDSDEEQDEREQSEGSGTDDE

Row | SMILES | IC50 (BRG-1; ADP-Glo ATPase assay) [nM] | IC50 (BRM; ADP-Glo ATPase assay) [nM] | Ratio* (BRM; ratio BRG1 IC50 / BRM IC50) | IC50 (BRG-1; [1]) [nM] | IC50 (BRM; [1]) [nM] | Ratio* (BRM; ratio of BRG1 IC50 to BRM IC50) | Ratio* (BRG1 IC50 (μM) divided by BRM IC50 (μM)) (BRM)
1 | COc1ncc2c(c1F)N(c1ccc3cnc(CNC(=O)c4ccc5c(c4)S(=O)(=O)CCOC5)cc3n1)CCC2 [Compound 783] | 444 | 31.1 | 14.27 |  |  |  | 
2 | C[C@@H]1CN(c2cccc(-c3ccc4cnc(CNC(=O)c5ccc6c(c5)S(=O)(=O)[C@@H](C)CO6)cc4n3)n2)C[C@H](C)O1 [Compound 687] |  |  |  | 360 | 19.7 | 18.34 | 
3 | Cc1cc2c(-c3ccc4cnc(CNC(=O)c5ccc6c(c5)S(=O)(=O)CCOC6)cc4n3)cccc2n1C [Compound 130] | 104 | 10.7 |  |  |  |  | 9.77
4 | O=C(NCc1cc2nc(-c3cccc(N(CC4COC4)C4CC4)n3)ccc2cn1)c1ccc2c(c1)S(=O)(=O)CCOC2 [Compound 428] |  |  |  | 324 | 50.3 | 6.45 | 
5 | Cn1cnc2c(-c3ccc4cnc(CNC(=O)c5ccc6c(c5)S(=O)(=O)CCOC6)cc4n3)cccc21 [Compound 234] | 1520 | 188 |  |  |  |  | 8.09
6 | CN(CCOC1CC1)c1cccc(-c2ccc3cnc(CNC(=O)c4ccc5c(c4)S(=O)(=O)CCOC5)cc3n2)n1 [Compound 361] |  |  |  | 145 | 7.4 | 19.62 | 
7 | O=C(NCc1cc2nc(-c3cccc([C@@]45CCOCC4C5)n3)ccc2cn1)c1ccc2c(c1)S(=O)(=O)CCOC2 (stereo partly drawn) [Compound 378] |  |  |  | 162 | 11.7 | 13.88 | 
8 | Cc1cnc2c(c1C)CCCN2c1ccc2cnc(CNC(=O)c3ccc4c(c3)S(=O)(=O)CCOC4)cc2n1 [Compound 429] |  |  |  | 76.4 | 7.4 | 10.32 | 
9 | COC[C@H](C)N(C)c1cccc(-c2ccc3cnc(CNC(=O)c4ccc5c(c4)S(=O)(=O)CCOC5)cc3n2)n1 [Compound 70] | 406 | 36.8 |  |  |  |  | 11.02
10 | CN(c1cnc2c(c1)OCCN2c1ccc2cnc(CNC(=O)c3ccc4c(c3)S(=O)(=O)CCOC4)cc2n1)C1CC1 [Compound 782] | 43.5 | 8.7 | 4.99 |  |  |  | 
11 | [2H]C1([2H])OC([2H])([2H])[C@H](C)S(=O)(=O)c2cc(C(=O)NCc3cc4nc(N5CCOc6cc(C)cnc65)ccc4cn3)ccc21 [Compound 741] | 93.4 | 6.6 | 14.12 |  |  |  | 
12 | O=C(NCc1cc2nc(-c3cccc(N4CC[C@@H]5C[C@@H]5C4)n3)ccc2cn1)c1ccc2c(c1)S(=O)(=O)CCOC2 [Compound 321] |  |  |  | 195 | 16 | 12.19 | 
13 | C[C@@H]1CN(c2cccc(-c3ccc4nnc(CNC(=O)c5ccc(Cl)c(S(C)(=O)=O)c5)cc4n3)n2)C[C@H](C)O1 [Compound 406] |  |  |  | 69.7 | 5 | 13.86 | 
14 | C[C@@H]1CCS(=O)(=O)c2cc(C(=O)NCc3cc4nc(-c5cccc(N6C[C@@H](C)O[C@@H](C)C6)n5)ccc4cn3)cc(F)c2O1 [Compound 494] |  |  |  | 98.5 | 22.4 | 4.39 | 
15 | CN(c1cccc(-c2ccc3cnc(CNC(=O)c4ccc5c(c4)S(=O)(=O)CCOC5)cc3n2)n1)[C@H]1CCOC1 [Compound 117] | 313 | 44.6 |  |  |  |  | 7.01
16 | COC[C@H](C)Nc1cccc(-c2ccc3cnc(CNC(=O)c4ccc(C(F)F)c(S(C)(=O)=O)c4)cc3n2)n1 [Compound 61] | 5000 | 956 |  |  |  |  | 5.23
17 | CCOc1nc(-c2ccc3cnc(CNC(=O)c4ccc5c(c4)S(=O)(=O)[C@@H](C)COC5)cc3n2)ccc1F [Compound 497] |  |  |  | 411 | 25.9 | 15.92 | 
18 | C[C@H]1COCc2ccc(C(=O)NCc3cc4nc(-c5cccc(OC(F)F)n5)ccc4cn3)cc2S1(=O)=O [Compound 384] |  |  |  | 407 | 14.3 | 28.41 | 
19 | CCOc1nc(-c2ccc3cnc(CNC(=O)c4ccc5c(c4)S(=O)(=O)CCOC5)cc3n2)ccc1Cl [Compound 493] |  |  |  | 921 | 179 | 5.15 | 
20 | COc1cnc2c(c1)CCN2c1ccc2cnc(CNC(=O)c3ccc4c(c3)S(=O)(=O)CCOC4)cc2n1 [Compound 703] | 298 | 36.8 | 8.10 |  |  |  | 
21 | O=C(NCc1cc2cc(N3CCCc4cc(-c5cn[nH]c5)ccc43)ccc2cn1)c1ccc2c(c1)S(=O)(=O)CCOC2 [Compound 789] | 30.3 | 5.9 | 5.10 |  |  |  | 
